In patent publication US6977272B2, “Method for antagonizing inhibition effects of alcohol on cell adhesion” (President and Fellows of Harvard College, priority 2002, dated 2005):
Where “and” joins values, the source holds several entries; their conditions need not be identical. Identical values can stand only once. Like-named read-outs stand apart in the source and are kept apart here. One block for each molecule: values may come before it.

Columns and labels:
[1] = biological target: T1, L1-mediated cell-cell adhesion in human L1-transfected NIH/3T3 cells (2B2-L1, 2A2-L1) (Homo sapiens, UniProt P32004); test: Cell aggregation (cell-cell adhesion) assay in ethanol-sensitive, human L1-transfected NIH/3T3 cells; type: cell-based; set-up: antagonist at the aqueous concentration (μM); Antagonist Activity Butanol % ± SEM; 1-alc; effect of increasing concentrations of 1-butanol on the antagonist activity (in words): dose or concentration left out as unconfirmed; details: for antagonist effect at higher concentrations (in words): 2 μM to 10 μM; for antagonist activity against ethanol (in words): test concentrations of FIG. 3 / Table 1; for agonist or antagonist activity (in words): at the ECEQ and at 10 times the ECEQ; for effect of increasing concentrations of 1-butanol on the antagonist activity (in words): 2 to […] mM 1-butanol, single antagonist concentration (FIG. 5A, 5B); for IC50: read-out: IC50 concentration (antagonist, used in FIG. 5A)
Method: (§1) NIH/3T3 cells were cultured at 37° C. in Dulbecco's […] Eagle medium (DMEM) (Invitrogen, Carlsbad, Calif.) supplemented with 10% normal calf serum (Intergen, Purchase, N.Y.) and 400 μg/ml G418 (Life Technologies), in an atmosphere of 90% air and 10% CO2. Three subclones were utilized in these studies: 2B2-L1, 2A2-L1 and Vec-1A5.
Cell adhesion assays were performed in the absence and presence of the compounds, listed below in Table 1. […] The aqueous concentration of each antagonist was calculated to produce membrane concentrations equivalent to 100 mM ethanol. Membrane/buffer partition coefficients (Pm/b) were obtained or calculated from published octanol/water partition coefficients.
(§2) Cells were detached by gentle agitation in calcium-free and magnesium-free PBS supplemented with 0.1 mg/ml. DNase, mechanically dissociated to obtain a single-cell suspension, and diluted to 350,000 cells/ml. One ml of the cell suspension was added per well (4.5 cm^2) to a 12-well plate. Agonists and test antagonists were added simultaneously, plates were sealed with parafilm to prevent evaporation, and the cells were gently shaken for 30 minutes at room temperature or on ice. Cells were viewed at a final magnification of 200× and each well was scored for single and adherent cells in five to six microscopic fields of view. Approximately 100 cells per field of view and 600 cells per well were counted. The percent of adherent cells was calculated for each microscopic field of view and then averaged for each well.
Agonists and antagonists were initially tested at aqueous concentrations that were calculated to produce molar membrane concentrations (˜10 mM) equivalent to those produced by an aqueous concentration of 100 mM ethanol (ECEQ).
L1-mediated cell-cell adhesion was defined as the difference in percent of adherent cells between an L1-transfected cell line (2B2-L1 or 2A2-L1) and a vector-transfected cell line (Vec-1A5).
Agonists include compounds that inhibit L1-mediated cell-cell adhesion.

[2] = obtained from a published source or calculated from published octanol/water partition coefficients (divided by five); cited from earlier work
[3] = tested on: NIH/3T3 cells transfected with an empty vector (Vec-1A5); test: Aggregation assay on NIH/3T3 cells transfected with an empty vector (non-L1 component of cell adhesion); type: cell-based, murine; details: four independent assays, each compound at the concentration given in the source, control 15±1
Method: as §1, §2
Each candidate antagonist was tested at a single aqueous concentration that was calculated to produce a molar membrane concentration equivalent to that produced by a buffer solution of 100 mM ethanol (ECEQ).

[4] = Membrane/buffer partition coefficient (Pm/b); type: physicochemical; details: from Pm/b of Table 1
Method: Cell adhesion assays were performed in the absence and presence of the compounds, listed below in Table 1. […] Membrane/buffer partition coefficients (Pm/b) were obtained or calculated from published octanol/water partition coefficients. The compounds are sorted by decreasing membrane/buffer partition coefficients.
Calculations were based on membrane-buffer partition coefficients (Pm/b), which were obtained from a published source (McCreery and Hunt, 1978) or were derived by dividing the octanol/water partition coefficient by five.

[5] = biological target: T1, L1-mediated cell-cell adhesion in human L1-transfected NIH/3T3 cells (2B2-L1, 2A2-L1); set-up: antagonist at the aqueous concentration (μM); Antagonist Activity Butanol % ± SEM; 1-alc; details: 3-buten-1-ol alone (Wilkemeyer et al., 2000); cited from earlier work
[6] = EC50 membrane (based on calculated membrane concentrations, expressed relative to 1-pentanol), against 100 mM ethanol, calculated from the Pm/b (FIG. 3)
[7] = against 2 mM butanol, linear regression of concentration-response curves (FIG. 4), read-out: aqueous concentration that produced half maximal effect (antagonism)
[8] = approximate EC50 (against 2 mM 1-butanol), antagonist concentration used in FIG. 5B
[9] = against 2 mM butanol, not adjusted for membrane concentration

T1 sequence (P32004 whole entry): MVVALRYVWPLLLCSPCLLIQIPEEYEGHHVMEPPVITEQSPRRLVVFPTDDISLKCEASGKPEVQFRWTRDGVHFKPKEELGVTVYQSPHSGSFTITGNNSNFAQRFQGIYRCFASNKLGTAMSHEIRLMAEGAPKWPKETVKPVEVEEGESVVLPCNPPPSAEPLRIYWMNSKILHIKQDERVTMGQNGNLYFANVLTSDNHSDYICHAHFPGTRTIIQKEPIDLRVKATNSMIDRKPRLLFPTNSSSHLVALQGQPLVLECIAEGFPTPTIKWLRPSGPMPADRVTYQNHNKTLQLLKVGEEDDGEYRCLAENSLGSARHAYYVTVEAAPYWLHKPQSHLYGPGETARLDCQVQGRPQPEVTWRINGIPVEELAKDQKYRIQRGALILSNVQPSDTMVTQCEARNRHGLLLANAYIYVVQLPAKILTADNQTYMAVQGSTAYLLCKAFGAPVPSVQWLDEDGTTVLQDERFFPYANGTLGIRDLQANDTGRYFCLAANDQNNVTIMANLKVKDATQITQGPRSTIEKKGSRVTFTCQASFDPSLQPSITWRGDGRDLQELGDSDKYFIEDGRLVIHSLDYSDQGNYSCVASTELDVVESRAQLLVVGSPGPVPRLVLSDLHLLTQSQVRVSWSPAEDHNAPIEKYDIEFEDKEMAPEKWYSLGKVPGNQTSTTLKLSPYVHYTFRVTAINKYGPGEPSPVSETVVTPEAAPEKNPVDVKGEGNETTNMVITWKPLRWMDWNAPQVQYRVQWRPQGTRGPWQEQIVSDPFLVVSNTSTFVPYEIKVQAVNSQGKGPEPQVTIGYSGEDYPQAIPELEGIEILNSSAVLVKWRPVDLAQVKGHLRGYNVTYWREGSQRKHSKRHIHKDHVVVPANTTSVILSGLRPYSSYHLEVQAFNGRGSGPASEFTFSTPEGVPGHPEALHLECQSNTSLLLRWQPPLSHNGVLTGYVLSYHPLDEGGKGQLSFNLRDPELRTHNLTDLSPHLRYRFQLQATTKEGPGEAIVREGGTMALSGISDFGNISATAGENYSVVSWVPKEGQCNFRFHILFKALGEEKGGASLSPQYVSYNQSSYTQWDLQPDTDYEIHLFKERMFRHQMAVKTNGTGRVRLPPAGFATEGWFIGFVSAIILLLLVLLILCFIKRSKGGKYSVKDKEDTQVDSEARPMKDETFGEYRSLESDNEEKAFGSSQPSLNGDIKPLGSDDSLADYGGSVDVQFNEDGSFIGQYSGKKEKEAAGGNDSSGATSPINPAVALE

EC50 [1]: 540 µM | EC50 [1, 6]: 540 µM | EC50 [1, 7]: 223 µM | EC50 [1, 8]: ~700 µM
Molecule: CCCCCO [1-pentanol]
mean±S.E.M. percent cell adhesion [3]: 16±2% | effect of increasing concentrations of 1-butanol on the antagonist activity (in words) [1]: did not eliminate the antagonist activity | P(m/b) membrane/buffer partition coefficient [2]: 5.02

percent inhibition of cell adhesion ([1]; 15 mM 2-buten-1-ol alone, n=10): 34±4% | percent inhibition of cell adhesion ([1]; 15 mM 2-buten-1-ol plus 2 mM 1-butanol, n=11): 35+6% | antagonism of the actions of 1-butanol and ethanol (in words) ([1]; 15 mM (ECEQ) 2-buten-1-ol): partially antagonized | inhibition of L1-mediated cell-cell adhesion (in words) ([1]; 15 mM (ECEQ) 2-buten-1-ol): partially inhibited | antagonism of the actions of 1-butanol or ethanol (in words) ([1]; 150 mM 2-buten-1-ol): neither antagonized nor augmented | inhibition of L1-mediated cell-cell adhesion (in words) ([1]; 150 mM 2-buten-1-ol): maximally inhibited
Molecule: CC=CCO [2-buten-1-ol]

effect of increasing concentrations of 1-butanol on the antagonist activity (in words) [1]: eliminated the antagonist activity
Molecule: CCC(O)CC [3-pentanol]
P(m/b) membrane/buffer partition coefficient [2]: 4.69

EC50 [1, 7]: 32 µM | ratio of half-maximal aqueous concentrations versus 1-hexanol [1, 9]: approximately 2.5 times | ratio of half-maximal aqueous concentrations versus 1-pentanol [1, 9]: approximately 7 fold | EC50 [1, 8]: ~40 µM
Molecule: CC(C)CCCO [4-methyl-1-pentanol]
mean±S.E.M. percent cell adhesion [3]: 15±3% | effect of increasing concentrations of 1-butanol on the antagonist activity (in words) [1]: did not eliminate the antagonist activity | P(m/b) membrane/buffer partition coefficient [2]: 9.36

IC50 ([1]; antagonism of 1-butanol inhibition of cell-cell adhesion): 3000 µM | EC50 ([1]; read-out: approximate EC50 (against 2 mM 1-butanol), antagonist concentration used in FIG. 5B): ~3000 µM
Molecule: C=CCCO [3-buten-1-ol]
effect on L1-mediated cell-cell adhesion, compound alone (in words) [5]: no effect | mean±S.E.M. percent cell adhesion [3]: 14±0% | P(m/b) membrane/buffer partition coefficient [2]: 1

effect of increasing concentrations of 1-butanol on the antagonist activity (in words) [1]: eliminated the antagonist activity
Molecule: OC1CCCC1 [cyclopentanol]
P(m/b) membrane/buffer partition coefficient [2]: 2.24

antagonist activity (in words) ([1]; 11 mM (ECEQ) 2-butanol): no antagonist activity | percent inhibition of L1-mediated cell-cell adhesion ([1]; 11 mM (ECEQ) 2-butanol alone, n=6): 63±9%
Molecule: CCC(C)O (stereo not shown) [2-butanol]

inhibition at 100000 µM ([1]; NIH3T3, read-out: percent inhibition of L1-mediated cell-cell adhesion): 62 ± 7%
Molecule: CCO [ethanol, reference compound]

EC50 [1, 7]: 80 µM
Molecule: CCCCCCO [1-hexanol]

agonist or antagonist activity (in words) [1]: neither agonists nor antagonists
Molecule: CC(O)C1CC1 (stereo not shown) [cyclopropylethanol]
P(m/b) membrane/buffer partition coefficient [2]: 0.83

effect of increasing concentrations of 1-butanol on the antagonist activity (in words) [1]: eliminated the antagonist activity
Molecule: OCc1ccccc1 [benzyl alcohol]
P(m/b) membrane/buffer partition coefficient [2]: 2.52

The next lines start with the molecule.

Molecule: CCCCCCCCCCCCCCCO [1-pentadecanol]
antagonist effect at higher concentrations (in words) [1]: inactive | antagonist activity against ethanol (in words) ([1]; against 100 mM ethanol): completely inactive | antagonist activity against ethanol (in words) ([1]; against 100 mM ethanol, listed as 1-Pentadecanol): no antagonist activity | agonist or antagonist activity (in words) [1]: neither agonists nor antagonists | P(m/b) membrane/buffer partition coefficient [2]: 347560

Molecule: CCCCCCCCCCCCCCO [1-tetradecanol]
antagonist effect at higher concentrations (in words) [1]: inactive | antagonist activity against ethanol (in words) ([1]; against 100 mM ethanol): only minimal antagonist activity | agonist or antagonist activity (in words) [1]: neither agonists nor antagonists | P(m/b) membrane/buffer partition coefficient [2]: 112468

Molecule: CCCC(C)(C)O [2-methyl-2-pentanol]
effect of increasing concentrations of 1-butanol on the antagonist activity (in words) [1]: did not eliminate the antagonist activity | P(m/b) membrane/buffer partition coefficient [2]: 5.2

Molecule: CCCC(C)O (stereo not shown) [2-pentanol]
effect of increasing concentrations of 1-butanol on the antagonist activity (in words) [1]: did not eliminate the antagonist activity | P(m/b) membrane/buffer partition coefficient [2]: 4.38

Molecule: CC(C)c1cccc(C(C)C)c1O [2,6-di-isopropyl phenol, 2,6-di-isopropylphenol, reference compound]
P(m/b) membrane/buffer partition coefficient [2]: 1233

Molecule: CCCCCCCCO [1-octanol]
mean±S.E.M. percent cell adhesion [3]: 12±1% | EC50 [1]: 3 µM | EC50 [1, 6]: 98 µM | antagonist potency relative to 1-pentanol ([1]; FIG. 3 and Wilkemeyer et al., 2000): two hundred-fold more potent | EC50 [1, 8]: ~5 µM | IC50 [1]: 5 µM | lipid solubility relative to 1-pentanol [4]: thirty-seven-fold more lipid soluble | P(m/b) membrane/buffer partition coefficient [2]: 189

Molecule: CCCCCCCCCCCO [1-undecanol]
EC50 [1]: 0.03 µM | EC50 [1, 6]: 20 µM | P(m/b) membrane/buffer partition coefficient [2]: 3810

Molecule: CCCCCCCO [1-heptanol]
P(m/b) membrane/buffer partition coefficient [2]: 51.4

Molecule: 1-butanol [reference compound]
mean±S.E.M. percent cell adhesion [3]: 13±2% | percent of the maximal agonist response ([1]; 2 mM 1-butanol (FIG. 5A)): approximately 90% | mean percent inhibition of cell adhesion ([1]; 2 mM 1-butanol alone, n=11): 60±5%

Molecule: CCCCCCCCCCCCCO [1-tridecanol]
EC50 [1]: 0.25 µM | EC50 [1, 6]: 1620 µM | fold less potent antagonist than C12 (1-dodecanol) ([1]; against 100 mM ethanol (FIG. 3)): approximately 25 fold | P(m/b) membrane/buffer partition coefficient [2]: 36394

Molecule: C[S+](C)[O-] [dimethyl sulfoxide, reference compound]
mean±S.E.M. percent cell adhesion [3]: 13±0% | inhibition of L1-mediated cell adhesion (in words) ([1]; 120 mM (1%) DMSO): did not inhibit | agonist or antagonist activity (in words) [1]: neither agonists nor antagonists | P(m/b) membrane/buffer partition coefficient [2]: 0.012

Molecule: CCCCCCCCCCCCO [1-dodecanol]
EC50 [1, 6]: 140 µM and 28 µM | P(m/b) membrane/buffer partition coefficient [2]: 26979
